Source: patent publication US7666901B2, “Analogs of 17-hydroxywortmannin as PI3K inhibitors” (Wyeth, priority 2004, dated 2010)
Converted amounts (≈) assume the structure as drawn.

Tests used:
[1] = target: T1, Human TOR (Homo sapiens, UniProt P42345); test: Human TOR (mTOR) kinase assay, DELFIA format; type: biochemical
T1 construct: FLAG
Procedure: The PI3K/AKT/TOR pathway is critical for cell proliferation, growth, survival, and angiogensis. Accordingly, compounds of the present invention may also be useful to inhibit TOR activity. Similar in vivo and in vitro assays to those described above with reference to PI3K can be used to determine the minimum concentration of compound sufficient to inhibit TOR. A human TOR assay and a Rat1-IGF1 assay as described in Examples 67 and 68, respectively was performed with some embodiments of the invention. The results of these assays are shown below in Tables 1 and 2.
Human TOR assays (See Toral-Barza, et al. Biochem Biophys. Res. Commun. 2005 Jun. 24; 332(1):304-10) with purified enzyme are performed in 96-well plates by DELFIA format as follows. Enzymes are first diluted in kinase assay buffer (10 mM Hepes (pH 7.4), 50 mM NaCl, 50 mM b-glycerophosphate, 10 mM MnCl2, 0.5 mM DTT, 0.25 mM microcystin LR, and […] BSA). To each well, 12 mL of the diluted enzyme is mixed briefly with 0.5 mL test inhibitor or control vehicle dimethylsulfoxide (DMSO). The kinase reaction is initiated by adding 12.5 mL kinase assay buffer containing ATP and His6-S6K to give a final reaction volume of 25 mL containing 800 ng/mL FLAG-TOR, […] ATP and […] His6-S6K. The reaction plate is incubated for 2 hours (linear at 1-6 hours) at room temperature with gentle shaking and then terminated by adding 25 mL Stop buffer (20 mM Hepes (pH 7.4), 20 mM EDTA, 20 mM EGTA). The DELFIA detection of the phosphorylated (Thr-389) His6-S6K is performed at room temperature using a monoclonal anti-P(T389)-p70S6K antibody (1A5, Cell Signaling) labeled with Europium-N1-ITC (Eu) (10.4 Eu per antibody, PerkinElmer). The DELFIA Assay buffer and Enhancement solution can be purchased from PerkinElmer. 45 mL of the terminated kinase reaction mixture is transferred to a MaxiSorp plate (Nunc) containing 55 mL PBS. The His6-S6K is allowed to attach for 2 hours after which the wells are aspirated and washed once with PBS. 100 mL of DELFIA Assay buffer with 40 ng/mL Eu-P(T389)-S6K antibody is added. The antibody binding is continued for 1 hour with gentle agitation. The wells are then aspirated and washed 4 times with PBS containing 0.05% Tween-20 (PBST). […] of DELFIA Enhancement solution is added to each well and the plates are read in a PerkinElmer Victor model plate reader. Data obtained is used to calculate enzymatic activity and enzyme inhibition by potential inhibitors.

[2] = test system: LNCaP (human prostate carcinoma); test: Cell proliferation (MTS) assay, LNCaP; type: cell-based; settings: three days treatment; for IC50: Homo sapiens, LNCaP, 72 h
Procedure: (§1) Results of cell proliferation assays for exemplary compounds are shown below in Tables 1 and 2. Cell lines LNCaP (human prostate carcinoma), MDA468 (human breast cancer cell), MDA435 (human breast adenocarcinoma), and DU145 (human prostate carcinoma[…]) were purchased from American Type Culture Collection (ATCC) (Rockville, Md.). Cells were cultured in RPMI Medium 1640 containing 10% fetal bovine serum (FBS) in a 37° C. incubator containing 5% CO2. All cell culture reagents were purchased from Gibco-BRL (Grand Island, N.Y.). Cells were plated in 96-well culture plates at about 3000 cells per well. One day following plating, compounds or vehicle controls (buffer only) were added to cells. Proliferation assays were performed three days post initiation of treatment.
(§2) For a non-radioactive cell proliferation assay, viable cell densities are determined by measuring metabolic conversion (by viable cells) of the dye MTS tatrazolium dye, a cell proliferation assay known by one of skill in the art (MTS assay), a previously established cell proliferation assay. The assay is performed using an assay kit (Promega Corp., Madison, Wis.). The assay plates are incubated for 1-2 hours, and the results are read in a 96-well format plate reader by measuring absorbance at 490 nm. Effect of each compound is calculated as a percentage of control cell growth obtained from vehicle-treated cells grown in the same plate.

[3] = test system: T2, PI3K; test: Fluorescence polarization assay for PI3K; type: biochemical; settings: for PI3K FP IC50: Table 1
T2 construct: PI3K FP IC50
Procedure: This assay is used to determine the IC50 of compounds of the present invention as it identifies inhibitors of PI3 kinase by measuring inhibition.
The assay is run by placing 5 μL of diluted enzyme per well, then 5 μL of diluted compound (or 9.5 μL enzyme then 0.5 μL compound in DMSO) is added and mixed. Then, 10 μL substrate is added to start the reaction. The samples are incubated 30-60 minutes, then the reaction is stopped by adding 20 μL stop/detector mix.
PI3K is diluted with reaction buffer (e.g., 5 μL or 7.5 μL PI3K into 620 μL reaction buffer), and 5 μL of diluted enzyme is used per well. 5 μL reaction buffer or drug diluted in buffer (e.g., 4 μL/100 so final DMSO is 1% in reaction) is added to each. The samples are mixed by pipetting up and down. Alternatively, the enzyme can be diluted to 1215 μL. In this case 9.8 μL is added per well and 0.2 μL compound is added in DMSO.
To prepare 1 mL of substrate solution, 955 μL reaction buffer, 40 μL PIP2, and 2.5 μL ATP are mixed. 10 μL of substrate is added to each well to start the reaction.
Stop/detector mix is prepared by mixing 4 μL Red detector and 1.6 μL or 2.0 μL GST-GRP with 1 mL Stop buffer, which results in 10 nM probe and 70 nM GST-GRP). 20 μL of the stop/detector mix is added to each well to stop the reaction. The plates are read after 30-90 minutes keeping the red probe solutions dark.
For the zero time point, stop/detector mix is added to the enzyme just before adding substrate. For an extra control, stop/detector mix is added to buffer (no enzyme) and substrate or to just buffer (no substrate).
The recommended reaction has 0.06 μL per 20 μL (0.015 μg/20 μL) or 0.01125 μg/15 μL or 0.75 μg/mL.
Plates are read on machines with filters for Tamra. The units are mP with no enzyme controls reading app 190-220 mP units. Fully active enzyme reduces fluorescence polarization down to 70-100 mP after 30 minutes. An active cpd raises the mP values halfway to control or to 120-150 mP units.

[4] = test system: MDA468 (human breast cancer cell); test: Cell proliferation (MTS) assay, MDA468; type: cell-based; settings: three days treatment; for IC50: Homo sapiens, 72 h
Procedure: as §1, §2

[5] = test system: DU145 (human prostate carcinoma/lymphocytic leukemia); test: Cell proliferation (MTS) assay, DU145; type: cell-based; settings: Table 1; three days treatment
Procedure: as §1, §2

[6] = test system: MDA435 (human breast adenocarcinoma); test: Cell proliferation (MTS) assay, MDA435; type: cell-based; settings: Table 1; three days treatment
Procedure: as §1, §2

Row | Compound | IC50 ([1]; Table 1) [nM] | IC50 ([2]; Table 1) [µg/mL] | PI3K FP IC50 [3] [µg/mL] | IC50 ([4]; Table 1) [µg/mL] | TOR IC50 ([1]; Table 1) [µg/mL] | further results
1 | (1E,4S,4aR,5R,6aS,7S)-1-[(diallylamino)methylene]-7-(formyloxy)-11-hydroxy-4-(methoxymethyl)-4a,6a-dimethyl-2,10-dioxo-1,2,4,4a,5,6,6a,7,8,9,9a,10-dodecahydroindeno[4,5-h]isochromen-5-yl acetate [Compound 17] |  |  | 0.607 |  | 1.3 | LNCaP IC50 ([2]; Table 1): 0.14 µg/mL; DU145 IC50 [5]: 3 µg/mL; MDA435 IC50 [6]: 7 µg/mL; MDA468 IC50 ([4]; Table 1): 0.5 µg/mL
2 | (1E,4S,4aR,5R,6aS,7S)-7-(formyloxy)-11-hydroxy-4-(methoxymethyl)-4a,6a-dimethyl-2,10-dioxo-1-(pyrrolidin-1-ylmethylene)-1,2,4,4a,5,6,6a,7,8,9,9a,10-dodecahydroindeno[4,5-h]isochromen-5-yl acetate [Compound 16] |  |  | 1.994 |  | 8 | LNCaP IC50 ([2]; Table 1): 0.08 µg/mL; DU145 IC50 [5]: 1.3 µg/mL; MDA435 IC50 [6]: 5.5 µg/mL; MDA468 IC50 ([4]; Table 1): 0.28 µg/mL
3 | CCC(=O)OC1CC2(C)C(O)CCC2C2=C1C1(C)C(=C(O)C2=O)C(=CN(C)CCN(C)C)C(=O)OC1COC (centres unmarked) [Compound 49, Propionic acid 4-{[(2-dimethylamino-ethyl)-methyl-amino]-methylene}-6,17-dihydroxy-1-methoxymethyl-10,13-dimethyl-3,7-dioxo-1,3,4,7,10,11,12,13,14,15,16,17-dodecahydro-2-oxa-cyclopenta[a]phenanthren-11-yl ester] | 1520 | 0.8 (≈ 1.46 µM) | 0.044 | 4.25 (≈ 7.77 µM) |  | 
4 | (1E,4S,4aR,5R,6aS,7S,9aR)-1-({4-[2-(2,5-dioxo-2,5-dihydro-1H-pyrrol-1-yl)ethyl]piperazin-1-yl}methylene)-7,11-dihydroxy-4-(methoxymethyl)-4a,6a-dimethyl-2,10-dioxo-1,2,4,4a,5,6,6a,7,8,9,9a,10-dodecahydroindeno[4,5-h]isochromen-5-yl acetate [Compound 65] |  |  | 1.55 |  | 0.58 | 
5 | COC[C@H]1OC(=O)/C(=C/N(C)CCCN(C)C)C2=C(O)C(=O)C3=C([C@H](O)C[C@@]4(C)C3CC[C@@H]4O)[C@]21C (stereo partly drawn) [Compound 60, (1E,4S,4aR,5R,6aS,7S)-1-{[[3-(dimethylamino)propyl](methyl)amino]methylene}-5,7,11-trihydroxy-4-(methoxymethyl)-4a,6a-dimethyl-4a,5,6,6a,7,8,9,9a-octahydroindeno[4,5-h]isochromene-2,10(1H,4H)-dione] |  |  |  |  |  | IC50 ([1]; Table 2): 396 nM; IC50 ([2]; Table 2): 0.33 µg/mL (≈ 0.654 µM); IC50 ([3]; Table 2): 7 nM; IC50 ([4]; Table 2): 2 µg/mL (≈ 3.96 µM)

Second part, led by results:

Row | IC50 ([1]; Table 1) [nM] | IC50 ([2]; Table 1) [µg/mL] | PI3K FP IC50 [3] [µg/mL] | IC50 ([4]; Table 1) [µg/mL] | TOR IC50 ([1]; Table 1) [µg/mL] | Compound | further results
6 | 1480 | 0.75 (≈ 1.3 µM) | 0.014 | 4.1 (≈ 7.13 µM) |  | CCN(C=C1C(=O)OC(COC)C2(C)C1=C(O)C(=O)C1=C2C(OC(C)=O)CC2(C)C(O)CCC12)CCN(CC)CC (centres unmarked) [Compound 42, Acetic acid 4-{[(2-diethylamino-ethyl)-ethyl-amino]-methylene}-6,17-dihydroxy-1-methoxymethyl-10,13-dimethyl-3,7-dioxo-1,3,4,7,10,11,12,13,14,15,16,17-dodecahydro-2-oxa-cyclopenta[a]phenanthren-11-yl ester] | 
7 | 728 | 1.45 (≈ 2.45 µM) | 0.028 | 5 (≈ 8.46 µM) |  | COCC1OC(=O)C(=CN(CCC#N)Cc2ccccc2)C2=C(O)C(=O)C3=C(C(OC(C)=O)CC4(C)C(O)CCC34)C21C (centres unmarked) [Compound 41, Acetic acid 4-{[benzyl-(2-cyano-ethyl)-amino]-methylene}-6,17-dihydroxy-1-methoxymethyl-10,13-dimethyl-3,7-dioxo-1,3,4,7,10,11,12,13,14,15,16,17-dodecahydro-2-oxa-cyclopenta[a]phenanthren-11-yl ester] | 
8 | 4600 | 0.42 (≈ 0.69 µM) | 0.027 | 3.4 (≈ 5.59 µM) |  | COCC1OC(=O)C(=CN(CCN(C)C)Cc2ccccc2)C2=C(O)C(=O)C3=C(C(OC(C)=O)CC4(C)C(O)CCC34)C21C (centres unmarked) [Compound 43, Acetic acid 4-{[benzyl-(2-dimethylamino-ethyl)-amino]-methylene}-6,17-dihydroxy-1-methoxymethyl-10,13-dimethyl-3,7-dioxo-1,3,4,7,10,11,12,13,14,15,16,17-dodecahydro-2-oxa-cyclopenta[a]phenanthren-11-yl ester] | 
9 | 2500 | 0.25 (≈ 0.48 µM) | 0.043 | 3.85 (≈ 7.39 µM) |  | CCCCSC=C1C(=O)OC(COC)C2(C)C1=C(O)C(=O)C1=C2C(OC(C)=O)CC2(C)C(O)CCC12 (centres unmarked) [Compound 52, Acetic acid 4-butylsulfanylmethylene-6,17-dihydroxy-1-methoxymethyl-10,13-dimethyl-3,7-dioxo-1,3,4,7,10,11,12,13,14,15,16,17-dodecahydro-2-oxa-cyclopenta[a]phenanthren-11-yl ester] | 
